From US4548952A, “2-[(2,6-Dichlorophenyl)amino]phenylacetoxyacetyl derivatives and therapeutic compositions containing same” (priority 1983, dated 1985)

Legend:
[1] = Fetal and teratogenous toxicity; assay type: in vivo, Sprague-Dawley rats and first generation fetuses; conditions: 15, 50 and 75 mg/kg/day oral during organogenesis
[2] = Plantar carrageenin edema test (anti-inflammatory); assay type: in vivo, albino Sprague-Dawley male rats; conditions: gastric catheter; for Inhibition % M ± σ: complementary value to area relative inflammation; for % Area Relative Inflammation (M ± σ): control = 100%
Procedure: The anti-inflammatory activity of two compounds was studied by means of the test of the plantar carrageenin edema (C. A. Winter, Proc. Soc. Exp. Brol. Med. 111, 544-47 (1962). The method used consists of preparing homogeneous lots of albino Sprague-Dawley male rats with weights of from 180-200 gr, to which are administered, by gastric catheter, the test compound suspended in a vehicle containing 0.2% CMC and 0.1% Tween 80, sixty minutes before the production of the subplantar edema. […] Immediately after this, all the rats received via oral administration 20 ml/kg of distilled water to attain uniform hydration. 60 minutes later a 1% carrageenin solution in physiologic serum was administered subcutanaceously into the left rear leg of each rat, at a dosage of 0.1 ml/rat. The same amount of physiologic serum was then injected into the right rear leg of each rat.
The plantar amount of the left and right rear extremities of each rat was determined before the administration of the carrageenin solution, and 1, 2, 3, 4, 5 and 6 hours after the administration thereof by means of a mercury plethysmograph, Ugo Basile Model 7.100. Indomethacin was used as a sample drug for purposes of comparison. Results were calculated as percentages representing the value indicated for each area relative to the value of the areas for the control group to which were assigned the value of 100% inflammation. A complementary value, the percentage of inhibition, was also calculated from the data. The arithmetic average and standard deviation (M±σ) were calculated for the obtained values as to the volumes of each leg, normal or inflamed, for each animal in each group (control and treated).

[3] = Acute toxicity by oral administration to rats; conditions: for LD0: oral, rats
Procedure: The acute toxicity of the foregoing compounds according to the present invention was studied by oral administration thereof to rats. The LD0 and LD50 values were determined, together with the limits of reliability as determined by the method of Litchfield and Wilcoxon.

[4] = Test of abdominal contractions by acetic acid (analgesic); assay type: in vivo, male mice; conditions: gastric catheter, 16 mice, half an hour before acetic acid i.p.
Procedure: (§1) The new 2-[(2,6-dichlorophenyl)amino]phenylacetoxyacetyl derivatives, according to the present invention, are compounds of therapeutic use with anti-inflammatory and analgesic pharmacologic properties, as shown by experimental pharmacologic data presented below. The analgesic activity of the compound (I) where R=H was determined by three known methods as follows.
This test was carried out according to the experimental model described by Koster R., Anderson, M. and De Bear, E. J. Fed. Proc., 18, 412 (1959). A suspension of the product to be tested was administered to a group of male mice through a gastric catheter half an hour before injecting the mice intraperitoneally with 0.2 ml of a 2% acetic acid solution. The number of abdominal contractions, manifested by drawing in of the rear third of the animal as a consequence of the chemical aggression incited by the acetic acid, were then counted.

[5] = Hot plate thermal stimulus test on mice (analgesic); assay type: in vivo; conditions: gastric catheter, hot plate 56° C., 10 mice, vs control mice
Procedure: as §1
This test is carried out according to the experimental model of Wolfe, G. and MacDonal, A. D., described in 3. Pharm. Exper. Therap. 80, 300 (1944). This test consists of administering, through a gastric catheter, a suspension of the test compound at the indicated dosages. After 30 minutes, 1 h., 11/2 h. and 2 h. the determinations were made. Mice were placed onto a hot plate at a temperature of 56° C. Table 2 indicates the percentage of protection from pain afforded by the dosages of the test compound in comparison with a group of control mice to which no test compound was administered.

[6] = Podolorimetric test in a rat (analgesic, yeast-infected leg); assay type: in vivo; conditions: 10 rats, vs control rats
Procedure: as §1
This test is based upon the method described by Randall, L. and Selitto, 3. Arch. Int. Pharmacodyn. 111, 409 (1957), consisting of administering the drug in a 1% carboxymethylcellulose (CMC) suspension. The test compound is administered to the rat, and 30 minutes thereafter a 20% yeast suspension is administered into the left leg of the rat and the same amount of physiologic serum is administered to the right leg of the rat. The threshold of the weight supported by both legs is determined 1 h., 2 h. and 4 h. after the administration of the yeast. Table 3 states the percentage of protection in terms of increased weight supported by the yeast-infected leg, relative to the dosage of the test compound, in comparison with a group of control rats to which no test compound was administered.

## O=C(COC(=O)Cc1ccccc1Nc1c(Cl)cccc1Cl)OCc1ccccc1 [I, R = CH2 --C6 H5, Benzyl 2-[(2,6-dichlorophenyl)amino]phenylacetoxyacetate]
[1]
  teratogenous effects: did not have any teratogenous effects
  toxic effects on the gestating females: did not produce any toxic effects on the gestating females
[2]; 3.75 mg/kg, 32 animals
  Inhibition % M ± σ: 35.96%
  % Area Relative Inflammation (M ± σ): 64.04 ± 7.91%
[3]
  LD0: 38.51 mg/kg
[3]; rat, in vivo, po
  LD50: 95.3 mg/kg

## O=C(O)COC(=O)Cc1ccccc1Nc1c(Cl)cccc1Cl [I, R = H, 2-[(2,6-dichlorophenyl)amino]phenylacetoxyacetic acid]
[4]; 100 mg/kg
  % PROTECTION (CONTROL OF CONTRACTIONS): 30.81%
[4]; 250 mg/kg
  % PROTECTION (CONTROL OF CONTRACTIONS): 67.62%
[1]
  teratogenous effects: did not have any teratogenous effects
  toxic effects on the gestating females: did not produce any toxic effects on the gestating females
[2]; 3.0 mg/kg, 32 animals
  Inhibition % M ± σ: 33.75%
  % Area Relative Inflammation (M ± σ): 63.25 ± 5.88%
[3]
  LD0: 68.03 mg/kg
[5]; 20 mg/kg
  % PROTECTION: 22.44%
[5]; 40 mg/kg
  % PROTECTION: 24.80%
[6]; 2.5 mg/kg
  % PROTECTION (increased weight supported by the yeast-infected leg): 32.05%
[6]; 10 mg/kg
  % PROTECTION (increased weight supported by the yeast-infected leg): 45.45%

## COc1ccc2c(c1)c(CC(=O)O)c(C)n2C(=O)c1ccc(Cl)cc1 [INDOMETHACIN, Indomethacin, reference compound]
[2]; 2.5 mg/kg, 40 animals
  Inhibition % M ± σ: 46.52%
  % Area Relative Inflammation (M ± σ): 53.48 ± 7.82%
